Source: ChEMBL document CHEMBL1153147, “Solid-phase synthesis and antibiotic activities of cyclodecapeptides on the scaffold of naturally occurring Laterocidin” (2010)
≈ marks a conversion by molar mass, not a printed value.

Tests used:
Format in all cases: functional
Bacillus subtilis = experiment: Antibacterial activity against Bacillus subtilis ATCC 82 after 20 hrs by broth dilution method; conditions: ATCC 82, 20 h
Escherichia coli [1] = experiment: Antibacterial activity against Escherichia coli ATCC 25922 after 20 hrs by broth dilution method; conditions: ATCC 25922, 20 h
Staphylococcus aureus [2] = experiment: Antibacterial activity against Staphylococcus aureus ATCC 29213 after 20 hrs by broth dilution method; conditions: ATCC 29213, 20 h
Escherichia coli [3] = experiment: Antibacterial activity against drug-resistant Escherichia coli clinical isolate after 20 hrs by broth dilution method
Pseudomonas aeruginosa = experiment: Antibacterial activity against Pseudomonas aeruginosa ATCC 27853 after 20 hrs by broth dilution method; conditions: ATCC 27853, 20 h
Escherichia coli [4] = experiment: Antibacterial activity against extended spectrum beta lactamase-producing Escherichia coli clinical isolate after 20 hrs by broth dilution method
Staphylococcus aureus [5] = experiment: Antibacterial activity against methicillin-resistant Staphylococcus aureus clinical isolate after 20 hrs by broth dilution method

SMILES: CC(C)C[C@@H]1NC(=O)[C@H](CC(N)=O)NC(=O)[C@H](CC(N)=O)NC(=O)[C@@H](Cc2ccccc2)NC(=O)[C@H](Cc2ccccc2)NC(=O)[C@@H]2CCCN2C(=O)[C@@H](Cc2ccc(O)cc2)NC(=O)[C@H](CC(C)C)NC(=O)[C@H](CCCN)NC(=O)[C@H](C(C)C)NC1=O
- MIC (Bacillus subtilis): 1 µg/mL (≈ 0.818 µM)
- MIC (Escherichia coli [1]): 64 µg/mL (≈ 52.4 µM)
- MIC (Staphylococcus aureus [2]): 2 µg/mL (≈ 1.64 µM)
- MIC (Escherichia coli [3]): 64 µg/mL (≈ 52.4 µM)
- MIC (Pseudomonas aeruginosa): > 256 µg/mL
- MIC (Escherichia coli [4]): 256 µg/mL (≈ 209 µM)
- MIC (Staphylococcus aureus [5]): 4 µg/mL (≈ 3.27 µM)

SMILES: CC(C)C[C@@H]1NC(=O)[C@H](CC(N)=O)NC(=O)[C@H](CC(N)=O)NC(=O)[C@@H](Cc2ccccc2)NC(=O)[C@H](Cc2ccc(O)cc2)NC(=O)[C@@H]2CCCN2C(=O)[C@@H](Cc2ccccc2)NC(=O)[C@H](CC(C)C)NC(=O)[C@H](CCCN)NC(=O)[C@H](C(C)C)NC1=O
- MIC (Bacillus subtilis): 0.5 µg/mL (≈ 0.409 µM)
- MIC (Escherichia coli [1]): > 256 µg/mL
- MIC (Staphylococcus aureus [2]): 1 µg/mL (≈ 0.818 µM)
- MIC (Escherichia coli [3]): 16 µg/mL (≈ 13.1 µM)
- MIC (Pseudomonas aeruginosa): > 256 µg/mL
- MIC (Escherichia coli [4]): 64 µg/mL (≈ 52.4 µM)
- MIC (Staphylococcus aureus [5]): 1 µg/mL (≈ 0.818 µM)

SMILES: CC(C)C[C@@H]1NC(=O)[C@H](CCCN)NC(=O)[C@H](C(C)C)NC(=O)[C@H](CC(C)C)NC(=O)[C@H](CC(N)=O)NC(=O)[C@H](CC(N)=O)NC(=O)[C@@H](Cc2ccccc2)NC(=O)[C@H](Cc2ccc(O)cc2)NC(=O)[C@@H]2CCCN2C(=O)[C@H](Cc2ccccc2)NC1=O
- MIC (Bacillus subtilis): 32 µg/mL (≈ 26.2 µM)
- MIC (Escherichia coli [1]): > 256 µg/mL
- MIC (Staphylococcus aureus [2]): 128 µg/mL (≈ 105 µM)
- MIC (Pseudomonas aeruginosa): > 256 µg/mL
- MIC (Escherichia coli [4]): > 256 µg/mL
- MIC (Staphylococcus aureus [5]): 256 µg/mL (≈ 209 µM)

SMILES: CC(C)C[C@@H]1NC(=O)[C@H](CCCN)NC(=O)[C@H](C(C)C)NC(=O)[C@H](CC(C)C)NC(=O)[C@H](CC(N)=O)NC(=O)[C@H](CC(N)=O)NC(=O)[C@H](Cc2ccccc2)NC(=O)[C@H](Cc2ccc(O)cc2)NC(=O)[C@@H]2CCCN2C(=O)[C@H](Cc2ccccc2)NC1=O
- MIC (Bacillus subtilis): 64 µg/mL (≈ 52.4 µM)
- MIC (Escherichia coli [1]): > 256 µg/mL
- MIC (Staphylococcus aureus [2]): 64 µg/mL (≈ 52.4 µM)
- MIC (Pseudomonas aeruginosa): > 256 µg/mL
- MIC (Escherichia coli [4]): > 256 µg/mL
- MIC (Staphylococcus aureus [5]): 128 µg/mL (≈ 105 µM)

SMILES: CC(C)C[C@@H]1NC(=O)[C@H](CC(N)=O)NC(=O)[C@H](CC(N)=O)NC(=O)[C@H](Cc2ccccc2)NC(=O)[C@H](Cc2ccc(O)cc2)NC(=O)[C@@H]2CCCN2C(=O)[C@@H](Cc2ccccc2)NC(=O)[C@H](CC(C)C)NC(=O)[C@H](CCCN)NC(=O)[C@H](C(C)C)NC1=O
- MIC (Bacillus subtilis): 32 µg/mL (≈ 26.2 µM)
- MIC (Escherichia coli [1]): > 256 µg/mL
- MIC (Staphylococcus aureus [2]): 32 µg/mL (≈ 26.2 µM)
- MIC (Pseudomonas aeruginosa): > 256 µg/mL
- MIC (Escherichia coli [4]): > 256 µg/mL
- MIC (Staphylococcus aureus [5]): 16 µg/mL (≈ 13.1 µM)

SMILES: CC(C)C[C@@H]1NC(=O)[C@H](CC(N)=O)NC(=O)[C@H](CC(N)=O)NC(=O)[C@@H](Cc2ccccc2)NC(=O)[C@H](Cc2ccccc2)NC(=O)[C@@H]2CCCN2C(=O)[C@@H](Cc2ccccc2)NC(=O)[C@H](CC(C)C)NC(=O)[C@H](CCCN)NC(=O)[C@H](C(C)C)NC1=O
- MIC (Bacillus subtilis): 2 µg/mL (≈ 1.66 µM)
- MIC (Escherichia coli [1]): > 256 µg/mL
- MIC (Staphylococcus aureus [2]): 2 µg/mL (≈ 1.66 µM)
- MIC (Escherichia coli [3]): 128 µg/mL (≈ 106 µM)
- MIC (Pseudomonas aeruginosa): > 256 µg/mL
- MIC (Escherichia coli [4]): 128 µg/mL (≈ 106 µM)
- MIC (Staphylococcus aureus [5]): 4 µg/mL (≈ 3.32 µM)

SMILES: CC(C)C[C@@H]1NC(=O)[C@H](CC(=O)O)NC(=O)[C@H](CC(N)=O)NC(=O)[C@@H](Cc2ccccc2)NC(=O)[C@H](Cc2ccccc2)NC(=O)[C@@H]2CCCN2C(=O)[C@@H](Cc2ccc(O)cc2)NC(=O)[C@H](CC(C)C)NC(=O)[C@H](CCCN)NC(=O)[C@H](C(C)C)NC1=O [LATEROCIDIN]
- MIC (Bacillus subtilis): 16 µg/mL (≈ 13.1 µM)
- MIC (Escherichia coli [1]): > 256 µg/mL
- MIC (Staphylococcus aureus [2]): 32 µg/mL (≈ 26.2 µM)
- MIC (Pseudomonas aeruginosa): > 256 µg/mL
- MIC (Escherichia coli [4]): > 256 µg/mL
- MIC (Staphylococcus aureus [5]): 128 µg/mL (≈ 105 µM)
